From US8664209B2, “Daptomycin for multiple sclerosis” (priority 2009, dated 2014)
Where two headings read alike, the source gives them in different places.

Tests used:
Assay type in all cases: in vivo, human
[1] = system: person with multiple sclerosis with almost weekly relapses; assay: Patient B case: daptomycin for relapses (Example 2); details: for ambulation: acute relapse (nonambulatory)
Source text: This is described in more detail in Example 2. Patient B is a person who was first diagnosed with multiple sclerosis in 1981. The course of their illness was characterized through the years by increasingly frequent relapses and progressive disability. They had initially been treated with azathioprine and, subsequently with interferons, including Betaseron™ and Avonex®, and Copaxone®. As adjunct treatments, they received innumerable courses of intravenous methylprednisolone, as well as cyclophosphamide, since 2005. In addition, they have also received mycophenylate mofetil, plasma exchange monthly, intravenous immunoglobulin monthly, natalizumab, daclizumab and rituximab. None of these regimens adequately controlled their many relapses, which were characterized by worsening gait and appendicular ataxia, weakness in their limbs, vertigo and diplopia and severe migraine headaches. In late 2008 and 2009, they were hospitalized seven times for relapses. Since 2005, they had received more than 50 courses of steroid and/or cyclophosphamide treatments for relapses not requiring hospitalization. These treatments would induce partial and short lasting remissions. During 2009, they were having relapses on a weekly basis. During remissions, they were able to walk only with a walker. Daptomycin 4 mg/kg intravenously [hereinafter “IV”] was administered to patient B for five days for an acute relapse which made the patient nonambulatory. […] They did have an allergic reaction with chest tightness and blistering at the injection site that was determined to be caused by the tape securing their IV catheter. […] Daptomycin 4 mg/kg/IV was administered for five additional days with pretreatment with solumedrol in the total amount of 100 mg IV and diphenhydramine in the total amount of 50 mg IV with improvement. Daptomycin was then ordered 4 mg/kg/IV once a week. Three days after their first weekly dose, they began to feel more off balanced and their headache became more severe. Daptomycin orders were revised to 4 mg/kg IV once a week in co-administration with solumedrol 1 gram IV.

[2] = system: person with secondary progressive multiple sclerosis (SPMS); assay: Patient A case: daptomycin given for MRSA infection (Examples 1, 3); details: for muscle and nerve pain, muscle stiffness: patient-reported
Source text: The novel use of daptomycin in the treatment and/or prevention of multiple sclerosis in mammals, particularly human, is based on the recent observation of a patient (Patient A) with multiple sclerosis whose progressive neurological disability stabilized after treatment with daptomycin for skin infections caused by methicillin resistant Staphalococcus aureus. Previously, their neurological disability had progressed despite treatment with standard FDA approved therapies as well as investigational therapies, some of which they developed severe allergic reactions to. […] More detail about Patient A is provided in Example 3. Patient A is a person who has suffered from multiple sclerosis. Their disease started with left arm and leg weakness. During the early course of the disease, they experienced frequent relapses. Progressive relapsing continued, with increasing lower extremity weakness. The patient characterized their left arm as feeling like dead weight. Patient A developed diverticulitis in 2006. Their EDSS (Expanded Disability Status Scale) was 5.5 in February, 2007, i.e., patient was able to walk 100 meters without aid or rest; their EDSS was 6.0 by the end of the year, i.e., patient required intermittent or constant assistance with a cane, crutch or brace to walk 100 meters. Daptomycin therapy was initiated to treat a MRSA infection after Patient A had knee surgery. They received a daptomycin dose of 100 mg for four weeks. Three months later, they had re-treatment with 500 mg daily for about four weeks.

[3] = system: patients with progressive and relapsing forms of multiple sclerosis
Procedure: Seventeen patients with relapsing remitting (4 patients) and chronic progressive multiple sclerosis […] have received daptomycin therapy at 4 mg/kg IV for periods ranging from five to 21 days. This patient group included Patient A and Patient B from the above examples.
Four out of seventeen patients have received daptomycin for acute relapses, after not responding to, or wishing to be taken of, solumedrol therapy.
Thirteen patients with chronic progressive multiple sclerosis received daptomycin therapy for symptoms of multiple sclerosis that were progressing, or to improve present symptoms. […] In all chronic progressive patients who report responses to the drug, maintenance doses starting with once a week with or without the addition of intravenous corticosteroids are given. Doses of daptomycin 2 mg/kg are given to patients who report fatigue as a significant side effect.
Overall, in the same study, daptomycin was administered to a total of 30 patients. 14 responded to treatment (47%).
Daptomycin was administered as a daily IV infusion at 3 mg/kg, 4 mg/kg or 6 mg/kg as per standard guidelines for 5 to 21 days, then as a maintenance dose of 3 mg/kg, 4 mg/kg or 6 mg/kg once every one to four weeks. Patients were monitored by telephone calls. CPK levels were done as clinically indicated. Patients were selected on the basis of failure or intolerance on other treatments and continued disease activity.

[4] = Patient A, listed as daptomycin
[5] = RPMS (relapsing progressive MS)
[6] = patient thirteen, SPMS, DD 4 yrs, EDSS pretx 4, 4 mg/kg/d × five days (relapse), status D (discontinued)
[7] = secondary progressive MS (SPMS)

CCCCCCCCCC(=O)N[C@@H](Cc1c[nH]c2ccccc12)C(=O)N[C@H](CC(N)=O)C(=O)N[C@@H](CC(=O)O)C(=O)N[C@@H]1C(=O)NCC(=O)N[C@@H](CCCN)C(=O)N[C@@H](CC(=O)O)C(=O)N[C@H](C)C(=O)N[C@@H](CC(=O)O)C(=O)NCC(=O)N[C@H](CO)C(=O)N[C@@H]([C@H](C)CC(=O)O)C(=O)N[C@@H](CC(=O)c2ccccc2N)C(=O)O[C@@H]1C [Daptomycin, N-decanoyl-L-trypotophyl-D-asparaginyl-L-aspartyl-L-threonylglycyl-L-ornithyl-L-aspartyl-D-alanyl-L-aspartylglycyl-D-seryl-threo-3-methyl-L-glutamyl-3-anthraniloyl-L-alanine ε1-lactone]
ambulation ([1]; 4 mg/kg IV for five days, third day): able to walk with their walker
ambulation ([1]; 4 mg/kg IV, after five days): able to take a few steps without their walker
duration of stability after initial course ([1]; after initial 4 mg/kg IV for five days, then recurrence of ataxia and increased headaches, less severe): stable for approximately one week
response of relapses ([1]; consecutive courses of daptomycin for three to five days): respond very rapidly
frequency of relapses ([1]; daptomycin at regular intervals (4 mg/kg IV once a week with solumedrol 1 gram IV)): marked decrease in the frequency of their relapses
frequency of relapses and neurological disability ([1]; intravenous daptomycin 4 mg/kg): stabilized both in terms of the frequency of their relapses and neurological disability
left upper extremity strength, sensation, numbness ([2]; Patient A): numbness in their left arm was improved
walking ([2]; Patient A, after the first daptomycin treatment (100 mg for four weeks)): slight improvement in walking
gait / need of cane ([2]; Patient A, after the second treatment (500 mg daily about four weeks)): did not require their cane, but could walk unassisted
progressive neurological disability ([2]; Patient A, after treatment with daptomycin for MRSA skin infections): stabilized
walking ([2]; Patient A, during and after treatment): able to walk extended distances without their cane
EDSS (Expanded Disability Status Scale) ([2]; Patient A, four weeks after discontinuing daptomycin, EDSS was 6.0 before, 100 mg for four weeks, re-treatment 500 mg daily about four weeks): 2.5
muscle and nerve pain, muscle stiffness ([2]; Patient A): improvement in muscle pain and stiffness
muscle and nerve pain, muscle stiffness [2, 4]: significant decrease in their muscle and nerve pain as well as muscle stiffness
left upper extremity strength, sensation, numbness [2, 4]: increase in strength and sensation of their left upper extremity
functional improvement ([2]; person with SPMS poorly responsive to other therapies): dramatic and sustained functional improvement
subgroup response [3, 5]: 0%
subgroup response (responders/treated) [3, 5]: 0/2
patient-reported strength and sensation ([3]; four out of seventeen patients given daptomycin for acute relapses, 4 mg/kg IV): Three patients reported improvement in their strength and sensation
creatine phosphokinase level (CPK) ([3]; human, in vivo): 217
hospitalizations ([3]; human, in vivo): Two patients were hospitalized for confusion and increased symptoms
most common side effect during the course of therapy ([3]; human, in vivo): fatigue
fatigue associated with therapy ([3]; human, in vivo, iv, 4 mg/kg): Three patients noted that daptomycin therapy was associated with significant fatigue
EDSS (last) ([3]; patient eight, SPMS, DD 12 yrs, EDSS pretx 7, 4 mg/kg × one dose, status D (discontinued)): 7
EDSS (last) ([3]; patient eighteen, SPMS, DD 5 yrs, EDSS pretx 6, 4 mg/kg × 5 days, then 4 mg/kg q week, status D (discontinued)): 6
EDSS (last) ([3]; patient eleven, SPMS, DD 24 yrs, EDSS pretx 6.5, 4 mg/kg/day × 14 days (relapse), status D (discontinued)): 6.5
EDSS (last) ([3]; patient fifteen, SPMS, DD 25 yrs, EDSS pretx 6.5, 4 mg/kg/d × 5 days (two courses), 4 mg/kg/week, status A (active)): 6.5
EDSS (last) ([3]; patient five, RRMS, DD 7 yrs, EDSS pretx 2.5, 4 mg/kg/day × 5 days, status D (discontinued)): 2.5
EDSS (last) ([3]; patient four, RRMS, DD 15 yrs, EDSS pretx 2.5, 4 mg/kg/d × 14 days, then 4 mg/kg/q 1-2 wks, status D (discontinued)): 2
EDSS (last) ([3]; patient fourteen, SPMS, DD 9 yrs, EDSS pretx 6, 4 mg/kg × 5 days, then 4 mg/kg q 2 wks, status A (active)): 6
EDSS (last) ([3]; patient nine, SPMS, DD 13 yrs, EDSS pretx 6.5, 4 mg/kg/d × 5 days, 4 mg/kg q 2 wks, status A (active)): 6.5
EDSS (last) ([3]; patient nineteen, SPMS, DD 21 yrs, EDSS pretx 6.5, 4 mg/kg × 21 days. D/Ced p 2½ wks, status D (discontinued)): 6.5
EDSS (last) ([3]; patient one, TMS, DD 12 yrs, EDSS pretx 6, 4 mg/kg × 21 days, status D (discontinued)): 6
EDSS (last) ([3]; patient seven, RRMS, DD 6 yrs, EDSS pretx 3.5, 4 mg/kg/d × 14 days, status D (discontinued)): 3.5
EDSS (last) ([3]; patient seventeen, RRMS, DD 7 yrs, EDSS pretx 0, 4 mg/kg/d × 3 days, then 4 mg/kg/week, status A (active)): 1
EDSS (last) ([3]; patient six, RPMS, DD 12 yrs, EDSS pretx 6, 4 mg/kg/d × 3 days, then 4 mg/kg/week, status D (discontinued)): 6
EDSS (last) ([3]; patient sixteen, PPMS, DD 18 yrs, EDSS pretx 8.5, 4 mg/kg/d × 15 days, the 4 mg/kg/week, status D (discontinued)): 8.5
EDSS (last) ([3]; patient ten, RRMS, DD 15 yrs, EDSS pretx 3, 4 mg/kg/d × 16 days, 4 mg/kg/wk × 4, then 4 mg/kg/q o wk, status A (active)): 3
EDSS (last) [3, 6]: 3.5
Outcome [3, 6]: No benefit
EDSS (last) ([3]; patient thirty, SPMS, DD 17 yrs, EDSS pretx 6, 4 mg/kg/d × 10 days, status D (discontinued)): 6
EDSS (last) ([3]; patient three, RPMS, DD 18 yrs, EDSS pretx 6.5, 4 mg/kg/d × 5 days, status D (discontinued)): 6.5
EDSS (last) ([3]; patient twelve, SPMS, DD 9 yrs, EDSS pretx 4, 4 mg/kg × 21 days, status D (discontinued)): 4
EDSS (last) ([3]; patient twenty, SPMS, DD 16 yrs, EDSS pretx 6.5, 4 mg/kg/day × 21 days, then 4 mg/kg q 2 weeks, status A (active)): 6.5
EDSS (last) ([3]; patient twenty-eight, SPMS, DD 15 yrs, EDSS pretx 6.5, 4 mg/kg/d × 10 days, then 4 mg/kg/wk, status A (active)): 6
EDSS (last) ([3]; patient twenty-five, SPMS, DD 6 yrs, EDSS pretx 6.5, 4 mg/kg/d × 5 days, status D (discontinued)): 7
EDSS (last) ([3]; patient twenty-four, SPMS, DD 15 yrs, EDSS pretx 6.5, 4 mg/kg/d × 10 days, then 4 mg/kg/wk, status A (active)): 6.5
EDSS (last) ([3]; patient twenty-nine, SPMS, DD 16 yrs, EDSS pretx 6.5, 4 mg/kg × 21 days, then 4 mg/kg q 2 wks, status A (active)): 6.5
EDSS (last) ([3]; patient twenty-one, SPMS, DD 11 yrs, EDSS pretx 5.5, 4 mg/kg/day × 21 days, 4 mg/kg q wk. 6 mg/kg/d times 14 days, status D (discontinued)): 6
EDSS (last) ([3]; patient twenty-seven, SPMS, DD 10 yrs, EDSS pretx 6, 4 mg/kg/d × 5 days, 2 mg/kg q 2 wks, status A (active)): 6
EDSS (last) ([3]; patient twenty-six, TMS, DD 23 yrs, EDSS pretx 4, 4 mg/kg/d × 14 days, status D (discontinued)): 4
EDSS (last) ([3]; patient twenty-three, RRMS, DD 11 yrs, EDSS pretx 2, 4 mg/kg × 5 days (relapse). Repeated 3 mos later (relapse), status D (discontinued)): 2.5
EDSS (last) ([3]; patient twenty-two, SPMS, DD 6 yrs, EDSS pretx 6.5, 4 mg/k/d × 5 days, status D (discontinued)): 6.5
EDSS (last) ([3]; patient two, SPMS, DD 11 yrs, EDSS pretx 6, 500 mg IV × 5 weeks, 4 mg/kg × 4 wks, 4 mg/kg q wk, status A (active)): 2.5
patients showing clinically significant improvement in symptoms of multiple sclerosis ([3]; patients with progressive and relapsing MS unresponsive to multiple therapies): 47%
subgroup response ([3]; primary progressive MS (PPMS)): 0%
subgroup response (responders/treated) ([3]; primary progressive MS (PPMS)): 0/1
subgroup response ([3]; relapsing remitting MS (RRMS)): 50%
subgroup response (responders/treated) ([3]; relapsing remitting MS (RRMS)): 3/6
subgroup response [3, 7]: 47%
subgroup response (responders/treated) [3, 7]: 9/19
patient-reported strength ([3]; thirteen patients with chronic progressive multiple sclerosis, 4 mg/kg IV): Nine patients reported better strength
patients who responded to treatment ([3]; total of 30 patients): 47%
patients who responded to treatment (number) ([3]; total of 30 patients): 14
subgroup response ([3]; transitional MS (TMS)): 100%
subgroup response (responders/treated) ([3]; transitional MS (TMS)): 2/2
